Values quoted from earlier work, collected in patent publication US12419901B2, “Prodrugs of deoxynucleosides for treatment of diseases caused by unbalanced nucleotide pools” (UCB BIOSCIENCES, INC., priority 2018, dated 2025).

Test system: dGK deficient patient derived fibroblasts
Conditions: 50 μM in cell culture medium, quiescent dGK-deficient fibroblasts

In the case of `Nc1nc2c(ncn2[C@H]2C[C@H](O)[C@@H](CO)O2)c(=O)[nH]1` [dGuo, deoxyguanosine], the “mtDNA depletion (previously demonstrated)” value is listed as “sufficient to prevent this depletion”.
